{"source": "patent US10351575B2", "about": "“Bicyclic urea, thiourea, guanidine and cyanoguanidine compounds useful for the treatment of pain” (Array BioPharma Inc., priority 2012, dated 2019)", "assay_in_all_cases": "KinaseProfiler off-target kinase profiling", "format_in_all_cases": "biochemical", "details_in_all_cases": "10 μM, ATP near Km", "key": {"CHK1": {"target": "CHK1 (Homo sapiens (Human), UniProt O14757)", "sequence (O14757 whole entry)": "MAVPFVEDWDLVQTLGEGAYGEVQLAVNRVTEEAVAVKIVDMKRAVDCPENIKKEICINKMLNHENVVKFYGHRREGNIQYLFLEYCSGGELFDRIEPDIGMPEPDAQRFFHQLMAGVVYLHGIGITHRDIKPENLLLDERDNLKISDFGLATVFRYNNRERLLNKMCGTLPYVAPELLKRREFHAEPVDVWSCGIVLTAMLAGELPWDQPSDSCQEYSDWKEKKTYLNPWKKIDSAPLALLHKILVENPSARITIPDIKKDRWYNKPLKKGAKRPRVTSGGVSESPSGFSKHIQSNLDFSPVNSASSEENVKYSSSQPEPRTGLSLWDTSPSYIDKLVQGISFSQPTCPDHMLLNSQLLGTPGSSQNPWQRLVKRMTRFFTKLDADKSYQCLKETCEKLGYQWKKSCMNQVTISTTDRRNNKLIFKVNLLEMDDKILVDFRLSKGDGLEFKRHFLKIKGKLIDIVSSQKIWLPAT", "how_it_was_run": "(§1)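 Compounds were screened at 10 μM in duplicate, with ATP near the Km of each individual kinase. Activity is given as percent of control (POC), averaged over both replicates.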"}, "PRKG1alpha": {"target": "PRKG1alpha (Homo sapiens (Human), UniProt Q13976)", "how_it_was_run": "as §1"}, "Flt3": {"target": "Flt3 (Homo sapiens (Human), UniProt P36888)", "how_it_was_run": "as §1"}, "PASK": {"target": "PASK (Homo sapiens (Human), UniProt Q96RG2)", "sequence (Q96RG2 whole entry)": "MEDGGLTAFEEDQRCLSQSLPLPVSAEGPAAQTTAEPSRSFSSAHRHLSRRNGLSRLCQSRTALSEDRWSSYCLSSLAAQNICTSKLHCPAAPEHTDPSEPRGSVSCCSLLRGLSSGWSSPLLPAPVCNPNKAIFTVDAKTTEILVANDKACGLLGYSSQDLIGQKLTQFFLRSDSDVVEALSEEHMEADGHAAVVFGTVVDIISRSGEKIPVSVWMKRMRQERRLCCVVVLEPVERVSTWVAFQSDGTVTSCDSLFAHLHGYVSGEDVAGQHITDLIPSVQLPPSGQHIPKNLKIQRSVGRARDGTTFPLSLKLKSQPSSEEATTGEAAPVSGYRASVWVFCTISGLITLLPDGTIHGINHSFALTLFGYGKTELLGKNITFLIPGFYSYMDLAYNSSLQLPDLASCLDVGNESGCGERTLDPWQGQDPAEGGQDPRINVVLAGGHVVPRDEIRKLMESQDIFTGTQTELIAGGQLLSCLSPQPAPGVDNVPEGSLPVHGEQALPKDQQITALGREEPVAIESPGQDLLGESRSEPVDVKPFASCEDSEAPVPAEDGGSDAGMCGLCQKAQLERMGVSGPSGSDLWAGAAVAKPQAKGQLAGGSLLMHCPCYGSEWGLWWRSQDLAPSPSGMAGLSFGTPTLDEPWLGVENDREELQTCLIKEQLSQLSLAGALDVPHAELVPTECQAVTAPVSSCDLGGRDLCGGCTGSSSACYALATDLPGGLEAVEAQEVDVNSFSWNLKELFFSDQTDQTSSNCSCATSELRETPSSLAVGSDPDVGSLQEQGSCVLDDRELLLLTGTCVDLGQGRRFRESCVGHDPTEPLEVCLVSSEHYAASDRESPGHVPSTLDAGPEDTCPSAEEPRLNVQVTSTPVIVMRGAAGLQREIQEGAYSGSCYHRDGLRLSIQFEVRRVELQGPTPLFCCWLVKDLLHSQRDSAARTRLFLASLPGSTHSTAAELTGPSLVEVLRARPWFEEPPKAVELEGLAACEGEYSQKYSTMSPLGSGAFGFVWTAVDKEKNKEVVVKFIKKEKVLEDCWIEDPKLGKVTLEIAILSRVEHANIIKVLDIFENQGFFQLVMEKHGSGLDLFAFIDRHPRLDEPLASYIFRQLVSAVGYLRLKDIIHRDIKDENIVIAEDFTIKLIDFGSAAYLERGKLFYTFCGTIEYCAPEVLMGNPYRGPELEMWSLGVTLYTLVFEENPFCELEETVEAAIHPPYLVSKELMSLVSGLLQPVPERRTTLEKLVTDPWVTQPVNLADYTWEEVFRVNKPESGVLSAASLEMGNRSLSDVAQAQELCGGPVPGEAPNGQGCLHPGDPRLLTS", "how_it_was_run": "as §1"}, "PKD2": {"target": "PKD2 (Homo sapiens (Human), UniProt Q9BZL6)", "how_it_was_run": "as §1"}, "IGF-1R": {"target": "IGF-1R (Homo sapiens (Human), UniProt P08069)", "how_it_was_run": "as §1"}, "Axl": {"target": "Axl (Homo sapiens (Human), UniProt P30530)", "how_it_was_run": "as §1"}, "PDK1": {"target": "PDK1 (Homo sapiens (Human), UniProt O15530)", "sequence (O15530 whole entry)": "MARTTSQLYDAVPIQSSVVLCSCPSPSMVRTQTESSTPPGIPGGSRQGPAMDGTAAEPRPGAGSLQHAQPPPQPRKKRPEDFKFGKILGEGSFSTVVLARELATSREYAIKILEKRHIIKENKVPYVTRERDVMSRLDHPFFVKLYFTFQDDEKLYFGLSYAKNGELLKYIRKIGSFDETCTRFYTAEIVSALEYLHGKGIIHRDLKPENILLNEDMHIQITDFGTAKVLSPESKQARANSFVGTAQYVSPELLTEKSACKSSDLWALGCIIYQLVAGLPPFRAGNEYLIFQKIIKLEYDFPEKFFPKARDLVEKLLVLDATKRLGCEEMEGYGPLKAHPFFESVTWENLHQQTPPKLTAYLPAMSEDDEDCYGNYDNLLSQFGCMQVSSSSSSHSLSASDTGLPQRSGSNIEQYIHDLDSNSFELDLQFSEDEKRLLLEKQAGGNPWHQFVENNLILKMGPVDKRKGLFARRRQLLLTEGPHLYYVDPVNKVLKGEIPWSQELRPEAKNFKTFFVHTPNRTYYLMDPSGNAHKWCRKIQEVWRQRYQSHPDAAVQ", "how_it_was_run": "as §1"}, "EphB4": {"target": "EphB4 (Homo sapiens (Human), UniProt P54760)", "how_it_was_run": "as §1"}, "FGFR2": {"target": "FGFR2 (Homo sapiens (Human), UniProt P21802)", "how_it_was_run": "as §1"}, "MSK1": {"target": "MSK1 (Homo sapiens (Human), UniProt O75582)", "how_it_was_run": "as §1"}, "PKAC-alpha": {"target": "PKAC-alpha (Homo sapiens (Human), UniProt P17612)", "how_it_was_run": "as §1"}, "Lyn": {"target": "Lyn (Homo sapiens (Human), UniProt P07948)", "how_it_was_run": "as §1"}, "IRAK4": {"target": "IRAK4 (Homo sapiens (Human), UniProt Q9NWZ3)", "how_it_was_run": "as §1"}, "TNK2": {"target": "TNK2 (Homo sapiens (Human), UniProt Q07912)", "how_it_was_run": "as §1"}, "NLK": {"target": "NLK (Homo sapiens (Human), UniProt Q9UBE8)", "sequence (Q9UBE8 whole entry)": "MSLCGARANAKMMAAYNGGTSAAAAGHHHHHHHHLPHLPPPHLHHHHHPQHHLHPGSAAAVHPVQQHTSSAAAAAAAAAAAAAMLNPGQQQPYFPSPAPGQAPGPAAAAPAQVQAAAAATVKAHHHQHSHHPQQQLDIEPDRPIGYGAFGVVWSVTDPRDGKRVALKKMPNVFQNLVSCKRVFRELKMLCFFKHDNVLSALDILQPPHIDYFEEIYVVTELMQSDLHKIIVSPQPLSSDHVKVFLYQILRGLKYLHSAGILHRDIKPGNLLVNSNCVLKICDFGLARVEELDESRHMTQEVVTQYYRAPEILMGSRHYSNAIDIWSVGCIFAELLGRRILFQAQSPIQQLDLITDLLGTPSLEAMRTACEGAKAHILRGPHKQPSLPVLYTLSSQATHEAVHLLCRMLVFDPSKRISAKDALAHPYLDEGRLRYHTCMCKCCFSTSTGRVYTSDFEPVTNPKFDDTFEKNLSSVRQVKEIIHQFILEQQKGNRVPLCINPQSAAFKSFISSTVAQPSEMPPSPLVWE", "how_it_was_run": "as §1"}, "ERK2": {"target": "ERK2 (Homo sapiens (Human), UniProt P28482)", "sequence (P28482 whole entry)": "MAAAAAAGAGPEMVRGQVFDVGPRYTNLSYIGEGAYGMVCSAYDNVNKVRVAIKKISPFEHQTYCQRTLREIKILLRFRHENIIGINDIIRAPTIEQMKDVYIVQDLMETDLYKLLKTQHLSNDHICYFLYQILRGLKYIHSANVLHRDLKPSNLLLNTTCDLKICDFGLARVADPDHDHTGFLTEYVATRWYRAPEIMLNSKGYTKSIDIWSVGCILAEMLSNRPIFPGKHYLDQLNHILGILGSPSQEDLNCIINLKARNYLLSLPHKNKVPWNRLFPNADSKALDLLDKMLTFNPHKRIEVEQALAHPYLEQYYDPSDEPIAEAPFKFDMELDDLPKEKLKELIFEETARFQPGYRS", "how_it_was_run": "as §1"}, "JNK1alpha1": {"target": "JNK1alpha1 (Homo sapiens (Human), UniProt P45983)", "how_it_was_run": "as §1"}, "DDR2": {"target": "DDR2 (Homo sapiens (Human), UniProt Q16832)", "how_it_was_run": "as §1"}, "TAO3": {"target": "TAO3 (Homo sapiens (Human), UniProt Q9H2K8)", "how_it_was_run": "as §1"}, "DRAK1": {"target": "DRAK1 (Homo sapiens (Human), UniProt Q9UEE5)", "sequence (Q9UEE5 whole entry)": "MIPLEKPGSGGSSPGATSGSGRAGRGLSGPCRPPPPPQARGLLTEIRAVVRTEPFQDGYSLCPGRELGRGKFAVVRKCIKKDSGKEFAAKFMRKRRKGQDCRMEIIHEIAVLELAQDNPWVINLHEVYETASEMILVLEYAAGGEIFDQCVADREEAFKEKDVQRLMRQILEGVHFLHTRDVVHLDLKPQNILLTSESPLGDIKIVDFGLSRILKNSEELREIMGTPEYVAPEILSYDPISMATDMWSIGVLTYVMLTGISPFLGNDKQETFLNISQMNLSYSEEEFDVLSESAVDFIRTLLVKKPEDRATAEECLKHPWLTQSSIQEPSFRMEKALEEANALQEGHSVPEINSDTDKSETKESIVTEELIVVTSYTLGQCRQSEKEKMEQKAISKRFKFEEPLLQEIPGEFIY", "how_it_was_run": "as §1"}, "TSSK2": {"target": "TSSK2 (Homo sapiens (Human), UniProt Q96PF2)", "how_it_was_run": "as §1"}, "mTOR": {"target": "mTOR (Homo sapiens (Human), UniProt P42345)", "how_it_was_run": "as §1"}, "MKNK2": {"target": "MKNK2 (Homo sapiens (Human), UniProt Q9HBH9)", "how_it_was_run": "as §1"}, "MKK6": {"target": "MKK6 (Homo sapiens (Human), UniProt P52564)", "how_it_was_run": "as §1"}, "Lck": {"target": "Lck (Homo sapiens (Human), UniProt P06239)", "sequence (P06239 whole entry)": "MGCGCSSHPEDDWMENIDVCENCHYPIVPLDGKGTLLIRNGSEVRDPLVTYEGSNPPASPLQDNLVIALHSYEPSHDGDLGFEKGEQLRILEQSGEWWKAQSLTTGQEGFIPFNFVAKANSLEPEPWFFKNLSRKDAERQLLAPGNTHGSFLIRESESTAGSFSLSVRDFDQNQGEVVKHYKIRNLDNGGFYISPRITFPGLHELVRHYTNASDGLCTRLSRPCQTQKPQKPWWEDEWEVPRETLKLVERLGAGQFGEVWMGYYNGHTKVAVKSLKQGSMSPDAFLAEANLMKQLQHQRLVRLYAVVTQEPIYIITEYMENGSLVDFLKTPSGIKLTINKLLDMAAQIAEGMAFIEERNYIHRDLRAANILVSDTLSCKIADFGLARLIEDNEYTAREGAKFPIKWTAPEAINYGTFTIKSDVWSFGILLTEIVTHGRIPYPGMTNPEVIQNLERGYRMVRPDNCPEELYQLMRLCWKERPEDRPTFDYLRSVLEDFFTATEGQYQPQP", "how_it_was_run": "as §1"}, "EphB2": {"target": "EphB2 (Homo sapiens (Human), UniProt P29323)", "how_it_was_run": "as §1"}, "NEK7": {"target": "NEK7 (Homo sapiens (Human), UniProt Q8TDX7)", "sequence (Q8TDX7 whole entry)": "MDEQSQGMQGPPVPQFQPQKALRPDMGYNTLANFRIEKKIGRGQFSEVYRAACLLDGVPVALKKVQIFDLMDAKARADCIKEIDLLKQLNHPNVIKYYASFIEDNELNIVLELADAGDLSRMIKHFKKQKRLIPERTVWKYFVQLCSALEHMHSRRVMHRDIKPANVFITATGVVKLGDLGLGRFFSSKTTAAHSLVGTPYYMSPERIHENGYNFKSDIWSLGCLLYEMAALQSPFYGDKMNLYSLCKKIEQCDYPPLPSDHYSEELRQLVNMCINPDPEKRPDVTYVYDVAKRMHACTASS", "how_it_was_run": "as §1"}, "JAK3": {"target": "JAK3 (Homo sapiens (Human), UniProt P52333)", "how_it_was_run": "as §1"}, "CAMK1d": {"target": "CAMK1d (Homo sapiens (Human), UniProt Q8IU85)", "how_it_was_run": "as §1"}, "Mer": {"target": "Mer (Homo sapiens (Human), UniProt Q12866)", "how_it_was_run": "as §1"}, "CDK2/cyclinE": {"target": "CDK2/cyclinE (Homo sapiens (Human), UniProt P24941)", "how_it_was_run": "as §1"}, "TEC Activated": {"target": "TEC Activated (Homo sapiens (Human), UniProt P42680)", "how_it_was_run": "as §1"}, "EphA4": {"target": "EphA4 (Homo sapiens (Human), UniProt P54764)", "how_it_was_run": "as §1"}, "ALK": {"target": "ALK (Homo sapiens (Human), UniProt Q9UM73)", "how_it_was_run": "as §1"}, "Ron": {"target": "Ron (Homo sapiens (Human), UniProt Q04912)", "how_it_was_run": "as §1"}, "Txk": {"target": "Txk (Homo sapiens (Human), UniProt P42681)", "sequence (P42681 whole entry)": "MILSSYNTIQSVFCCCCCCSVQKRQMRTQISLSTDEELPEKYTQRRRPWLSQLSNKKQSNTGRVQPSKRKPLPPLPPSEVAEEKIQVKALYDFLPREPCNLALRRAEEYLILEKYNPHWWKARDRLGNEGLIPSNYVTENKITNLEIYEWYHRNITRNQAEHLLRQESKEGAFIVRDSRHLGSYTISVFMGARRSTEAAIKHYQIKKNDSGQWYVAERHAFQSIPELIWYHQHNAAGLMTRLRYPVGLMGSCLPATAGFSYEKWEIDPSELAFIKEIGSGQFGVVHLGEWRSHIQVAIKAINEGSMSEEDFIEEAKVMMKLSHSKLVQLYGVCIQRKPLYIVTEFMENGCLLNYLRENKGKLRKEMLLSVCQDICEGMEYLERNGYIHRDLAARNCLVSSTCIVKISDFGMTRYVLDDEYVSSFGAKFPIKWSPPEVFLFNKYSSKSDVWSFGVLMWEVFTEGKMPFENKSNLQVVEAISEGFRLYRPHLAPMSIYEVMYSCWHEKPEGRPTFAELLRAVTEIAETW", "how_it_was_run": "as §1"}, "PAK2": {"target": "PAK2 (Homo sapiens (Human), UniProt Q13177)", "how_it_was_run": "as §1"}, "IGF-1R Activated": {"target": "IGF-1R Activated (Homo sapiens (Human), UniProt P08069)", "how_it_was_run": "as §1"}}}
{"compound": "COCc1ccc2c(c1)C(NC(=O)Nc1c(C)c(-c3cnn(C)c3)nn1-c1ccccc1)COC2", "note": "(stereo not drawn) [Example 32, 1-(1′,4-dimethyl-1-phenyl-1H,1′H-[3,4′-bipyrazol]-5-yl)-3-(6-(methoxymethyl)isochroman-4-yl)urea]", "values": [{"measurement": "Avg. POC", "setting": "CHK1", "result": 103, "unit": "POC"}, {"measurement": "Avg. POC", "setting": "PRKG1alpha", "result": 84, "unit": "POC"}, {"measurement": "Avg. POC", "setting": "Flt3", "result": 115, "unit": "POC"}, {"measurement": "Avg. POC", "setting": "PASK", "result": 137, "unit": "POC"}, {"measurement": "Avg. POC", "setting": "PKD2", "result": 110.5, "unit": "POC"}, {"measurement": "Avg. POC", "setting": "IGF-1R", "result": 84.5, "unit": "POC"}, {"measurement": "Avg. POC", "setting": "Axl", "result": 119.5, "unit": "POC"}, {"measurement": "Avg. POC", "setting": "PDK1", "result": 101.5, "unit": "POC"}, {"measurement": "Avg. POC", "setting": "EphB4", "result": 106, "unit": "POC"}, {"measurement": "Avg. POC", "setting": "FGFR2", "result": 110.5, "unit": "POC"}, {"measurement": "Avg. POC", "setting": "MSK1", "result": 118, "unit": "POC"}, {"measurement": "Avg. POC", "setting": "PKAC-alpha", "result": 90, "unit": "POC"}, {"measurement": "Avg. POC", "setting": "Lyn", "result": 106.5, "unit": "POC"}, {"measurement": "Avg. POC", "setting": "IRAK4", "result": 99, "unit": "POC"}, {"measurement": "Avg. POC", "setting": "TNK2", "result": 132, "unit": "POC"}, {"measurement": "Avg. POC", "setting": "NLK", "result": 125.5, "unit": "POC"}, {"measurement": "Avg. POC", "setting": "ERK2", "result": 128.5, "unit": "POC"}, {"measurement": "Avg. POC", "setting": "JNK1alpha1", "result": 118, "unit": "POC"}, {"measurement": "Avg. POC", "setting": "DDR2", "result": 116, "unit": "POC"}, {"measurement": "Avg. POC", "setting": "TAO3", "result": 105, "unit": "POC"}, {"measurement": "Avg. POC", "setting": "DRAK1", "result": 105.5, "unit": "POC"}, {"measurement": "Avg. POC", "setting": "TSSK2", "result": 120.5, "unit": "POC"}, {"measurement": "Avg. POC", "setting": "mTOR", "result": 94.5, "unit": "POC"}, {"measurement": "Avg. POC", "setting": "MKNK2", "result": 99.5, "unit": "POC"}, {"measurement": "Avg. POC", "setting": "MKK6", "result": 134.5, "unit": "POC"}, {"measurement": "Avg. POC", "setting": "Lck", "result": 104.5, "unit": "POC"}, {"measurement": "Avg. POC", "setting": "EphB2", "result": 96.5, "unit": "POC"}, {"measurement": "Avg. POC", "setting": "NEK7", "result": 122.5, "unit": "POC"}, {"measurement": "Avg. POC", "setting": "JAK3", "result": 109.5, "unit": "POC"}, {"measurement": "Avg. POC", "setting": "CAMK1d", "result": 114, "unit": "POC"}, {"measurement": "Avg. POC", "setting": "Mer", "result": 104, "unit": "POC"}, {"measurement": "Avg. POC", "setting": "CDK2/cyclinE", "result": 106, "unit": "POC"}, {"measurement": "Avg. POC", "setting": "TEC Activated", "result": 108.5, "unit": "POC"}, {"measurement": "Avg. POC", "setting": "EphA4", "result": 103, "unit": "POC"}, {"measurement": "Avg. POC", "setting": "ALK", "result": 127, "unit": "POC"}, {"measurement": "Avg. POC", "setting": "Ron", "result": 107, "unit": "POC"}, {"measurement": "Avg. POC", "setting": "Txk", "result": 127, "unit": "POC"}, {"measurement": "Avg. POC", "setting": "PAK2", "result": 108.5, "unit": "POC"}, {"measurement": "Avg. POC", "setting": "IGF-1R Activated", "result": 112.5, "unit": "POC"}]}
